Laboratory results from patent US12391679B2, “Benzamide-substituted bicyclic imidazo- and pyrazolo-fused -pyridine, -pyrimide, and -pyridazine compounds for treatment of inflammatory diseases” (ONCO3R Therapeutics BV, priority 2019, dated 2025).

Experiments:
Assay type in all cases: biochemical
[1] = molecular target: T1, SIK1 (Homo sapiens, UniProt P57059); assay: ADP-Glo kinase assay, SIK1
T1 construct: purchased Carna Biosciences 02-131
Procedure: (§1) The ADP-Glo™ kinase assay is a luminescent technology assay which measures the ADP formed from a kinase reaction. […] In a second step the kinase reactions are terminated and all the remaining ATP is depleted. In a final step the ADP is converted into ATP and this newly synthesized ATP is measured by using a luciferase/luciferin reaction. The generated light is measured using an Envision plate reader, wherein the luminescent signal obtained positively correlates with the kinase activity.
(§2) 1% DMSO and 10 μM staurosporine final concentrations are used as negative and positive controls.
(§3) 2 μL enzyme-substrate mixture is added to the assay plates.
(§4) The reaction is started by adding 2 μL diluted ATP on the assay plates. Plates are centrifuged for a few seconds at 1000 rpm and gently shaken for […] followed by an incubation at RT for 120 min.
(§5) The reactions are stopped and the unconsumed ATP is depleted by adding 5 μL ADP-Glo Reagent (Promega, Cat #V9120) to the reaction. The plates are centrifuged for a few seconds at 1000 rpm and incubated at RT for 40 min (ATP depletion).
(§6) The ADP is converted to ATP and luciferase and luciferin is introduced to detect ATP by adding 10 μL Kinase Detection Reagent (Promega, Cat #V913B+V914r) to the reaction. The plates are centrifuged for a few seconds at 1000 rpm and incubated at RT for 30 min (ADP detection).
(§7) Luminescence is measured on an Envision plate reader (PerkinElmer Inc.).

[2] = molecular target: T2, SIK2 (Homo sapiens, UniProt Q9H0K1); assay: ADP-Glo kinase assay, SIK2
T2 construct: purchased ThermoFisher Scientific PV4792
T2 sequence (Q9H0K1 whole entry): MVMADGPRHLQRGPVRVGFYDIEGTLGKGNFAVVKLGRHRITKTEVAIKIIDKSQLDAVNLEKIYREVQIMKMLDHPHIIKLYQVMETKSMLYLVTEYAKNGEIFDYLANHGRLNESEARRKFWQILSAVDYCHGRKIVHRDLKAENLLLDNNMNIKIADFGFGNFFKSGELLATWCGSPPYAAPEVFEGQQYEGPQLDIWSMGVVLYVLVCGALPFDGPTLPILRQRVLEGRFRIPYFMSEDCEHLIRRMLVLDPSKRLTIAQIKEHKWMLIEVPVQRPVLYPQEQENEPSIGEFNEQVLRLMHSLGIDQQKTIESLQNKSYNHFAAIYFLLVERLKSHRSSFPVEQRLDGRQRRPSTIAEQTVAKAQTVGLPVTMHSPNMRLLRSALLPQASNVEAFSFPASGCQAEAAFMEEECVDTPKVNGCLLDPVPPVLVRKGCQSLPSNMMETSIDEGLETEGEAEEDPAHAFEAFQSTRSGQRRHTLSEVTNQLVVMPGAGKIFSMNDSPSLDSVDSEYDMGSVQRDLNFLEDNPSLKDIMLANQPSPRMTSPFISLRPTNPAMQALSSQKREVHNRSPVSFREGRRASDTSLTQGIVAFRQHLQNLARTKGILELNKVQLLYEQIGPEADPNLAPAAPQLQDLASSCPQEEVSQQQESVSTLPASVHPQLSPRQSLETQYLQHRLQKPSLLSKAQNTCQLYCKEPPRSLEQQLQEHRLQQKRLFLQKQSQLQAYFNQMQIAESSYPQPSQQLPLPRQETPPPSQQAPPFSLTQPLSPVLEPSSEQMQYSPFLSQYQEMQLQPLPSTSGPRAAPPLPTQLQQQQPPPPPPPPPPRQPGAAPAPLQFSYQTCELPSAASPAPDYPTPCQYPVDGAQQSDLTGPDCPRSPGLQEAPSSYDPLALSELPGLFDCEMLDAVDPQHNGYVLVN
Procedure: as §1, §2, §3, §4, §5, §6, §7

[3] = molecular target: T3, SIK3 (Homo sapiens, UniProt Q9Y2K2); assay: ADP-Glo kinase assay, SIK3
T3 construct: purchased SignalChem S12-11G-100
T3 sequence (Q9Y2K2 59-365 limits assumed): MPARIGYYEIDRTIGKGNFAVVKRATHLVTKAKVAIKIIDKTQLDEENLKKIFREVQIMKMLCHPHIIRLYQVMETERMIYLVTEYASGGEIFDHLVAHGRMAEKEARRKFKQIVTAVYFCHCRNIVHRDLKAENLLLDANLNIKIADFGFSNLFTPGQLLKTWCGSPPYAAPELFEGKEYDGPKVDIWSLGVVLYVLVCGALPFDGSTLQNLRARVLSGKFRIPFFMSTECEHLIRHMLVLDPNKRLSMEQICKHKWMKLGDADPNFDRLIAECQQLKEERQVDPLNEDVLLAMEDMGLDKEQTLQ
Procedure: as §1, §2, §3, §4, §5, §6, §7

T1 sequence (P57059 whole entry): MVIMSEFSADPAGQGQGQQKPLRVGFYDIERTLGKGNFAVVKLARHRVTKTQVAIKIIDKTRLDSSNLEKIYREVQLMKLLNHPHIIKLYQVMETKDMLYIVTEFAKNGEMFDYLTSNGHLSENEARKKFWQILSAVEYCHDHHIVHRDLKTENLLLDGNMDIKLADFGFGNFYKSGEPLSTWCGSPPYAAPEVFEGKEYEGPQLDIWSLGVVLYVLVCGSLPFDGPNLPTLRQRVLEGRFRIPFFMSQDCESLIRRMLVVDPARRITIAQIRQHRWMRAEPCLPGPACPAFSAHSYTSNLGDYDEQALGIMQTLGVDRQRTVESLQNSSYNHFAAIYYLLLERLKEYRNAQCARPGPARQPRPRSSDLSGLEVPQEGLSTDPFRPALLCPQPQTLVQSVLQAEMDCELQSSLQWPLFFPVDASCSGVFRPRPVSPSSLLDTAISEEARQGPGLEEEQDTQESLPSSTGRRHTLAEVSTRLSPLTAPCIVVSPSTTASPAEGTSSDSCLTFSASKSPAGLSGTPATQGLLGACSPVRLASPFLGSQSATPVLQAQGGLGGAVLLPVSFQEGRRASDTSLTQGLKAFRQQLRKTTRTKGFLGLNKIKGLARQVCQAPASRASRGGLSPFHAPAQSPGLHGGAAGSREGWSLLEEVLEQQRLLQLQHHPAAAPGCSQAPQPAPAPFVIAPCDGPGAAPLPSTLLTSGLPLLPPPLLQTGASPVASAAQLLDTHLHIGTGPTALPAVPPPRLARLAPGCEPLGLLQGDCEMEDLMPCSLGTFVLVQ

SMILES | IC50 [1] [nM] | IC50 [2] [nM] | IC50 [3] [nM]
COc1cc(-c2cnc3cc(C(C)(C)C#N)ccn23)cc(OC(F)F)c1C(=O)N1CC(CO)C1 [Cpd 97, 2-[3-[3-(difluoromethoxy)-4-[3-(hydroxymethyl)azetidine-1-carbonyl]-5-methoxy-phenyl]imidazo[1,2-a]pyridin-7-yl]-2-methyl-propanenitrile] | > 500 | > 500 | 10 to 100
COc1cc(-c2cnn3cc(C4(NCC#N)CCC4)ccc23)cc(OC(F)F)c1C(=O)N[C@@H]1C[C@@H]1F [Cpd 270, 4-[6-[1-(cyanomethylamino)cyclobutyl]pyrazolo[1,5-a]pyridin-3-yl]-2-(difluoromethoxy)-N-[(1R,2S)-2-fluorocyclopropyl]-6-methoxy-benzamide] | > 500 | > 500 | 10 to 100
COc1cc(-c2cnc3cc(C(C)N4CC5(COC5)C4)ccn23)cc(OC(F)F)c1C(=O)NC1CC1 (stereo not drawn) [Cpd 152, N-cyclopropyl-2-(difluoromethoxy)-6-methoxy-4-[7-[1-(2-oxa-6-azaspiro[3.3]heptan-6-yl)ethyl]imidazo[1,2-a]pyridin-3-yl]benzamide] | > 500 | > 500 | 10 to 100
COc1cc(-c2cnc3cc(C(C)(C)OC)ncn23)cc(OC(F)F)c1C(=O)NC1CC1 [Cpd 118, N-cyclopropyl-2-(difluoromethoxy)-6-methoxy-4-[7-(1-methoxy-1-methyl-ethyl)imidazo[1,2-c]pyrimidin-3-yl]benzamide] | > 500 | > 500 | 10 to 100
COc1cc(-c2cnc3cc(C4(C(=O)NCCO)CC4)ccn23)cc(OC(F)F)c1C(=O)NC1CC1 [Cpd 147, N-cyclopropyl-2-(difluoromethoxy)-4-[7-[1-(2-hydroxyethylcarbamoyl)cyclopropyl]imidazo[1,2-a]pyridin-3-yl]-6-methoxy-benzamide] | > 500 | > 500 | 10 to 100
COc1cc(-c2cnc3cc(C(C)(C)C#N)ccn23)cc2c1C(=O)NC2 [Cpd 111, 2-[3-(7-methoxy-1-oxo-isoindolin-5-yl)imidazo[1,2-a]pyridin-7-yl]-2-methyl-propanenitrile] | > 500 | > 500 | 10 to 100
COc1cc(-c2cnn3cc(C(C)(C)C(N)=O)ccc23)cc(OC(F)F)c1C(=O)NC1CC1 [Cpd 244, 4-[6-(2-amino-1,1-dimethyl-2-oxo-ethyl)pyrazolo[1,5-a]pyridin-3-yl]-N-cyclopropyl-2-(difluoromethoxy)-6-methoxy-benzamide] | > 500 | > 500 | 10 to 100
C#CC1(O)CN(C(=O)c2c(OC)cc(-c3cnc4cc(C(C)(C)C#N)ccn34)cc2OC(F)F)C1 [Cpd 89, 2-[3-[3-(difluoromethoxy)-4-(3-ethynyl-3-hydroxy-azetidine-1-carbonyl)-5-methoxy-phenyl]imidazo[1,2-a]pyridin-7-yl]-2-methyl-propanenitrile] | > 500 | > 500 | 10 to 100
COc1cc(-c2cnc3cc(C(C)(C)C#N)ccn23)cc(OC(F)F)c1C(=O)N1CCC(F)(F)C1 [Cpd 47, 2-[3-[3-(difluoromethoxy)-4-(3,3-difluoropyrrolidine-1-carbonyl)-5-methoxy-phenyl]imidazo[1,2-a]pyridin-7-yl]-2-methyl-propanenitrile] | > 500 | > 500 | 10 to 100
COc1cc(-c2cnc3cc(C4CCOCC4)ncn23)cc(OC(F)F)c1C(=O)NC1CC1 [Cpd 109, N-cyclopropyl-2-(difluoromethoxy)-6-methoxy-4-(7-tetrahydropyran-4-ylimidazo[1,2-c]pyrimidin-3-yl)benzamide] | > 500 | > 500 | > 500
COc1cc(-c2cnc3cc(C(C)(C)C(O)C(C)C)ccn23)cc(OC(F)F)c1C(=O)NC1CC1 (stereo not drawn) [Cpd 202, N-cyclopropyl-2-(difluoromethoxy)-4-[7-(2-hydroxy-1,1,3-trimethyl-butyl)imidazo[1,2-a]pyridin-3-yl]-6-methoxy-benzamide] | > 500 | > 500 | 10 to 100
COc1cc(-c2cnc3cc(C4(CNC(C)C)CC4)ccn23)cc(OC(F)F)c1C(=O)NC1CC1 [Cpd 151, N-cyclopropyl-2-(difluoromethoxy)-4-[7-[1-[(isopropylamino)methyl]cyclopropyl]imidazo[1,2-a]pyridin-3-yl]-6-methoxy-benzamide] | > 500 | > 500 | 100 to 500
COC(=O)C(F)(F)c1ccn2c(-c3cc(OC)c(C(=O)NC4CC4)c(OC(F)F)c3)cnc2c1 [Cpd 131, methyl 2-[3-[4-(cyclopropylcarbamoyl)-3-(difluoromethoxy)-5-methoxy-phenyl]imidazo[1,2-a]pyridin-7-yl]-2,2-difluoro-acetate] | > 500 | > 500 | 0.01 to 10
COc1cc(-c2cnc3cc(C(C)(O)C4CCOCC4)ccn23)cc(OC(F)F)c1C(=O)NC1CC1 (stereo not drawn) [Cpd 134, N-cyclopropyl-2-(difluoromethoxy)-4-[7-(1-hydroxy-1-tetrahydropyran-4-yl-ethyl)imidazo[1,2-a]pyridin-3-yl]-6-methoxy-benzamide] | > 500 | > 500 | 10 to 100
COc1cc(-c2cnc3cc(C(C)(C)C#N)ccn23)cc(OC(F)F)c1C(=O)NCC1CCC1 [Cpd 90, 4-[7-(1-cyano-1-methyl-ethyl)imidazo[1,2-a]pyridin-3-yl]-N-(cyclobutylmethyl)-2-(difluoromethoxy)-6-methoxy-benzamide] | > 500 | > 500 | 10 to 100
COc1cc(-c2cnc3cc(C(C)(C)C#N)ccn23)cc(OC(F)F)c1C(=O)NCCN1CCOCC1 [Cpd 42, 4-[7-(1-cyano-1-methyl-ethyl)imidazo[1,2-a]pyridin-3-yl]-2-(difluoromethoxy)-6-methoxy-N-(2-morpholinoethyl)benzamide] | > 500 | > 500 | 100 to 500
COc1cc(-c2cnc3cc(C4(CN5CCOCC5)CC4)ccn23)cc(OC(F)F)c1C(=O)NC1CC1 [Cpd 145, N-cyclopropyl-2-(difluoromethoxy)-6-methoxy-4-[7-[1-(morpholinomethyl)cyclopropyl]imidazo[1,2-a]pyridin-3-yl]benzamide] | > 500 | > 500 | 100 to 500
COCCNC(=O)C1(c2ccn3c(-c4cc(OC)c(C(=O)NC5CC5)c(OC(F)F)c4)cnc3c2)CC1 [Cpd 142, N-cyclopropyl-2-(difluoromethoxy)-6-methoxy-4-[7-[1-(2-methoxyethylcarbamoyl)cyclopropyl]imidazo[1,2-a]pyridin-3-yl]benzamide] | > 500 | > 500 | 10 to 100
COc1cc(-c2cnc3cc(C4(C)CN(C)CCO4)ccn23)cc(OC(F)F)c1C(=O)NCC(F)(F)F (stereo not drawn) [Cpd 214, 2-(difluoromethoxy)-4-[7-(2,4-dimethylmorpholin-2-yl)imidazo[1,2-a]pyridin-3-yl]-6-methoxy-N-(2,2,2-trifluoroethyl)benzamide] | > 500 | > 500 | 100 to 500
COc1cc(-c2cnn3cc(C4CCOCC4)ccc23)cc(OC(F)F)c1C(=O)NC1CC1 [Cpd 112, N-cyclopropyl-2-(difluoromethoxy)-6-methoxy-4-(6-tetrahydropyran-4-ylpyrazolo[1,5-a]pyridin-3-yl)benzamide] | > 500 | 10 to 100 | 0.01 to 10
CCNC(=O)C(C)(C)c1ccc2c(-c3cc(OC)c(C(=O)NC4CC4)c(OC(F)F)c3)cnn2c1 [Cpd 249, N-cyclopropyl-2-(difluoromethoxy)-4-[6-[2-(ethylamino)-1,1-dimethyl-2-oxo-ethyl]pyrazolo[1,5-a]pyridin-3-yl]-6-methoxy-benzamide] | > 500 | > 500 | 10 to 100
COc1cc(-c2cnc3cc(C4COCCN4C(=O)OC(C)(C)C)ccn23)cc(OC(F)F)c1C(=O)NC1CC1 (stereo not drawn) [Cpd 186, tert-butyl 3-[3-[4-(cyclopropylcarbamoyl)-3-(difluoromethoxy)-5-methoxy-phenyl]imidazo[1,2-a]pyridin-7-yl]morpholine-4-carboxylate] | > 500 | > 500 | > 500
COCCOc1cc(-c2cnn3cc(C(C)(C)C#N)ccc23)cc(OC)c1C(=O)NC1CC1 [Cpd 260, 4-[6-(1-cyano-1-methyl-ethyl)pyrazolo[1,5-a]pyridin-3-yl]-N-cyclopropyl-2-methoxy-6-(2-methoxyethoxy)benzamide] | > 500 | > 500 | 100 to 500
COc1cc(-c2cnc3cc(C4(C)CN(C)CCO4)ccn23)cc(OC(F)F)c1C(=O)NC1CC1 (stereo not drawn) [Cpd 210, N-cyclopropyl-2-(difluoromethoxy)-4-[7-(2,4-dimethylmorpholin-2-yl)imidazo[1,2-a]pyridin-3-yl]-6-methoxy-benzamide] | > 500 | > 500 | 10 to 100
